Structures are written as SMILES. Read-outs that look alike come from different tables or passages of the source. A value given as a limit tells only on which side of the number the result lay.

One experiment has as its target T1, D1 dopamine receptors (Rattus norvegicus, UniProt P18901).
T1 construct: Striatal samples from the brains of male Charles River CD rats; from tissue; host or cells: striatum of male Charles River CD rats (washed membrane pellet)
Put plainly: D1 dopamine receptor binding: inhibition of tritiated SCH 23390 binding, rat striatal samples. Also noted: species or system rat (male Charles River CD rats). The conditions noted are these: rat striatum, tritiated SCH 23390, pH 7.4, 37° C., 30 minutes. The method, then:
(§1) Striatal samples from the brains of male Charles River CD rats weighing between 140-250 g were homogenised in ice-cold 50 mM Tris-HCl buffer (pH 7.4 when measured at 25° C. for D1 binding assays and pH 7.7 when measured at 25° C. for D2 binding assays) and centrifuged for 10 minutes (at 21,000 g when used for D1binding assay and 40,000 g when used for D2binding assays). The pellet was resuspended in the same buffer, again centrifuged and the final pellet stored at -80° C. Before each test the pellet was resuspended in 50 mM Tris-HCl buffer containing 120 mM NaCl, 5 mM KCl, 2 mM CaCl2 and 1 mM MgCl2 at pH 7.4 for the D1 binding assays and at pH 7.7 with the addition of 6 mM ascorbic acid for the D2 binding assays. Aliquots of this suspension were then added to tubes containing the ligand and either the compound under test or buffer. For the D1 binding assays the ligand was tritiated SCH 23390 and the mixture was incubated at 37° C. for 30 minutes before the incubation was terminated by rapid filtration. For the D2 binding assays the ligand was tritiated (S)-sulpiride and the mixture was incubated at 4° C. for 40 minutes before the incubation was terminated by rapid filtration. Non-specific binding was determined experimentally by the addition of saturating concentrations of chloropromazine or spiroperidol for D1 and D2 receptors respectively.
(§2) The filters were washed with ice-cold Tris-HCl buffer and dried. The filters were punched out on to vials containing scintillation fluid and were left for about 20 hours before being counted by scintillation spectrophotometry. Displacement curves were produced over a range of concentrations of the compound under test and the concentration which gave a 50% inhibition of specific binding (IC50) obtained from the curve. The inhibition coefficient Ki was then calculated using the formula [formula] in which [ligand] is the concentration of the tritiated ligand used and KD is the equilibrium dissociation constant for the ligand.
(§3) In some cases Ki values for D2 binding were estimated from single concentration data by the application of the Langmuir adsorption isotherm equation. These cases are indicated by an "E" in the last two columns of Table I. In other cases it was not possible to determine or estimate the Ki and the Ki value is given as greater than (>) that which would result from the application of the above formula to the highest concentration which displaced ≤50% of the ligand.

The target in a further experiment is T2, D2 dopamine receptors (Rattus norvegicus, UniProt P61169).
T2 construct: Striatal samples from the brains of male Charles River CD rats; from tissue; host or cells: striatum of male Charles River CD rats (washed membrane pellet)
T2 sequence (P61169 whole entry): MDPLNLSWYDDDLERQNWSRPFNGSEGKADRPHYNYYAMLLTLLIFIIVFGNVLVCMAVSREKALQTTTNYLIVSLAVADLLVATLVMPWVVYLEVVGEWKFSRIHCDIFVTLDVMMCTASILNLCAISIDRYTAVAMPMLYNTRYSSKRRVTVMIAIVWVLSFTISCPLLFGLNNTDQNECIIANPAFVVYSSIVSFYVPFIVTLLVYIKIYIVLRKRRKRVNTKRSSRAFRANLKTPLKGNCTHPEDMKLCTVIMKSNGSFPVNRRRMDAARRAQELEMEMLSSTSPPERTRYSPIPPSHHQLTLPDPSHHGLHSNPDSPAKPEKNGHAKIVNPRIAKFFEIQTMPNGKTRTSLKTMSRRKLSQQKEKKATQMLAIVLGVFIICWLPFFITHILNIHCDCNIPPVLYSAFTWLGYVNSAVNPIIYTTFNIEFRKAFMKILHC
Put plainly: D2 dopamine receptor binding: inhibition of tritiated (S)-sulpiride binding, rat striatal samples. Conditions: for Ki: rat striatum, tritiated (S)-sulpiride; for Ki for D2 / Ki for D1: ratio to two significant figures. Set-up: species or system rat (male Charles River CD rats). Here is the method: as §1, §2, §3

Setting [1] is: pH 7.7, 4° C., 40 minutes, > = from highest concentration which displaced ≤50% of the ligand, read-out: Ki for D2 binding.
The mark [2] stands for this setting: estimated from single concentration data by Langmuir adsorption isotherm equation, read-out: Ki for D2 binding (marked E).

T1 sequence (P18901 whole entry): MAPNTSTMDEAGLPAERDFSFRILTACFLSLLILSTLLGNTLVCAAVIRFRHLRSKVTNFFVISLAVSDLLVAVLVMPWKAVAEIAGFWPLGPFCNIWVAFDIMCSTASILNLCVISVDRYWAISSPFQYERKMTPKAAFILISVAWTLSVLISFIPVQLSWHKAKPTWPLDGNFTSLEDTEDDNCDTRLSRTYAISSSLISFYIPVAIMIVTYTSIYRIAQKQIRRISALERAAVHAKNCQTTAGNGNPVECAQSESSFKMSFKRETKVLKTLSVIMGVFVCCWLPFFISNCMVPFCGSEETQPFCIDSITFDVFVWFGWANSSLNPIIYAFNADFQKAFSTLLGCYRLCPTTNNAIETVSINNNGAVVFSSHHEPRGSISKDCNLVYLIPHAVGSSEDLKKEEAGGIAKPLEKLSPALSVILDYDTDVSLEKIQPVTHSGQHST

Consider `COc1cccc(C2(C3c4cc(O)c(OC)cc4CCN3C)CCC2)c1` (stereo not shown) [Example 39, 7-hydroxy-6-methoxy-1-[1-(3-methoxyphenyl)cyclobutyl]-2-methyl-1,2,3,4-tetrahydroisoquinoline], for which the values for the inhibition constant Ki at D1 dopamine receptors and on D2 dopamine receptors (setting [1]) were 23 nM and 1900 nM, respectively. Also, the “Ki for D2 / Ki for D1” value at D2 dopamine receptors was 83.

`CN1CCc2cc(Cl)c(O)cc2C1C1(c2ccccc2Br)CCC1` (stereo not shown) [Example 40, 1-[1-(2-bromophenyl)cyclobutyl]-6-chloro-7-hydroxy-2-methyl-1,2,3,4-tetrahydroisoquinoline]: the Ki at D1 dopamine receptors came out at 0.4 nM; at D2 dopamine receptors (setting [1]), 18000 nM. For the same compound, on D2 dopamine receptors, the “Ki for D2 / Ki for D1” value came out at 45000.

Consider `CN1CCc2ccc(O)cc2C1C1(c2ccccc2)CCC1` (stereo not shown) [Example 41, 7-hydroxy-2-methyl-1-(1-phenylcyclobutyl)-1,2,3,4-tetrahydroisoquinoline], for which the inhibition constant (Ki) on D1 dopamine receptors worked out at 79 nM; on D2 dopamine receptors (setting [1]), 13000 nM. For the same compound, the “Ki for D2 / Ki for D1” value on D2 dopamine receptors is 160.

Consider `CN1CCc2cc(O)c(O)cc2C1C1(c2ccc3ccccc3c2)CCC1` (stereo not shown) [Example 42, 6,7-dihydroxy-2-methyl-1-[1-(2-naphthyl)cyclobutyl]-1,2,3,4-tetrahydroisoquinoline], for which the inhibition constant (Ki) was found to be 170 nM on D1 dopamine receptors and 2500 nM on D2 dopamine receptors (setting [1]). The “Ki for D2 / Ki for D1” value on D2 dopamine receptors is given as 15.

In the case of `COc1cc2c(cc1O)C(C1(c3cccc4ccccc34)CC1)N(C)CC2` (stereo not shown) [Example 43, 7-hydroxy-6-methoxy-2-methyl-1-[1-(1-naphthyl)cyclopropyl]-1,2,3,4-tetrahydroisoquinoline], the Ki came to 1.4 nM on D1 dopamine receptors and 860 nM on D2 dopamine receptors (setting [1]). Also, on D2 dopamine receptors, the “Ki for D2 / Ki for D1” value came out at 610.

For `CN1CCc2c(Cl)ccc(O)c2C1C1(c2ccccc2)CCC1` (stereo not shown) [Example 44, 5-chloro-8-hydroxy-2-methyl-1-(1-phenylcyclobutyl)-1,2,3,4-tetrahydroisoquinoline], the Ki at D1 dopamine receptors stood at 130 nM; at D2 dopamine receptors (setting [1]), 4800 nM. The “Ki for D2 / Ki for D1” value at D2 dopamine receptors came to 37.

In the case of `CN1CCc2cc(O)c(O)cc2C1C1(c2ccccc2)CCC1` (stereo not shown) [Example 45, 6,7-dihydroxy-2-methyl-1-(1-phenylcyclobutyl)-1,2,3,4-tetrahydroisoquinoline], the inhibition constant (Ki) at D1 dopamine receptors is 24 nM; on D2 dopamine receptors (setting [1]) it was above 500 nM. For the same compound, the “Ki for D2 / Ki for D1” value at D2 dopamine receptors is listed as above 21.

Take `CN1CCc2cc(O)c(O)cc2C1C1(c2ccc(Cl)cc2Cl)CCC1` (stereo not shown) [Example 46]: the inhibitory constant (Ki) came out at 6.6 nM at D1 dopamine receptors and 1200 nM on D2 dopamine receptors (setting [1]). Besides, the “Ki for D2 / Ki for D1” value on D2 dopamine receptors is given as 180.

`CN1CCc2ccc(O)cc2C1C1(c2ccccc2Cl)CCC1` (stereo not shown) [Example 47, 1-[1-(2-chlorophenyl)cyclobutyl]-7-hydroxy-2-methyl-1,2,3,4-tetrahydroisoquinoline]: the inhibitory constant (Ki) turned out to be 9.1 nM at D1 dopamine receptors and 19000 nM at D2 dopamine receptors (setting [1]). For the same compound, at D2 dopamine receptors, the “Ki for D2 / Ki for D1” value was found to be 2100.

Turning to `COc1cc2c(cc1O)C(C1(c3ccccc3)CCCC1)N(C)CC2` (stereo not shown) [Example 48], the Ki was 94 nM at D1 dopamine receptors and 3000 nM on D2 dopamine receptors (setting [2]).

For the compound `COc1cc2c(cc1O)C(C1(c3ccc(Cl)cc3)CCC1)N(C)CC2` (stereo not shown) [Example 49, 1-[1-(4-chlorophenyl)cyclobutyl]-7-hydroxy-6-methoxy-2-methyl-1,2,3,4-tetrahydroisoquinoline], the inhibition constant Ki at D1 dopamine receptors was 8.4 nM; at D2 dopamine receptors (setting [1]), above 500 nM. The “Ki for D2 / Ki for D1” value on D2 dopamine receptors is given as above 60.

As to `CN1CCc2cc(O)c(O)cc2C1C1(c2ccc(Cl)cc2)CCC1` (stereo not shown) [Example 50, 1-[1-(4-chlorophenyl)cyclobutyl]-6,7-dihydroxy-2-methyl-1,2,3,4-tetrahydroisoquinoline], the results for the Ki at D1 dopamine receptors and on D2 dopamine receptors (setting [1]) were 25 nM and 1500 nM, respectively. On D2 dopamine receptors, the “Ki for D2 / Ki for D1” value amounted to 60.

As for `CN1CCc2ccc(O)cc2C1C1(c2ccc(Cl)cc2)CCC1` (stereo not shown) [Example 51, 1-[1-(4-chlorophenyl)cyclobutyl]-7-hydroxy-2-methyl-1,2,3,4-tetrahydroisoquinoline], the Ki at D1 dopamine receptors was 13 nM; at D2 dopamine receptors (setting [1]), above 500 nM. In addition, on D2 dopamine receptors, the “Ki for D2 / Ki for D1” value is reported as above 38.

For `CN1CCc2cc(Cl)c(O)cc2C1C1(c2ccccc2)CCC1` (stereo not shown) [Example 52, 6-chloro-7-hydroxy-2-methyl-1-(1-phenylcyclobutyl)-1,2,3,4-tetrahydroisoquinoline], the inhibitory constant (Ki) was determined as 17 nM on D1 dopamine receptors and 5400 nM at D2 dopamine receptors (setting [1]). The “Ki for D2 / Ki for D1” value on D2 dopamine receptors amounted to 320.

With `CN1CCc2cc(Cl)c(O)cc2C1C1(c2ccc(Cl)cc2)CCC1` (stereo not shown) [Example 53, 6-chloro-1-[1-(4-chlorophenyl)cyclobutyl]-7-hydroxy-2-methyl-1,2,3,4-tetrahydroisoquinoline], the Ki came to 24 nM at D1 dopamine receptors and 7600 nM at D2 dopamine receptors (setting [1]). On D2 dopamine receptors, the “Ki for D2 / Ki for D1” value is given as 320.

In the case of `COc1ccc(C2(C3c4cc(O)c(O)cc4CCN3C)CCC2)cc1` (stereo not shown) [Example 54], the Ki at D1 dopamine receptors amounted to 32 nM; on D2 dopamine receptors (setting [1]), 3000 nM. At D2 dopamine receptors, the “Ki for D2 / Ki for D1” value is given as 94.

With `COc1cc2c(cc1O)C(C1(c3ccccc3)CCC1)N(C)CC2` (stereo not shown) [Example 55, 7-hydroxy-6-methoxy-2-methyl-1-(1-phenylcyclobutyl)-1,2,3,4-tetrahydroisoquinoline], the Ki was 41 nM at D1 dopamine receptors and above 500 nM on D2 dopamine receptors (setting [1]). Also, the “Ki for D2 / Ki for D1” value on D2 dopamine receptors is given as above 12.

Regarding `COc1cc2c(cc1O)C(C1(c3cc(OC)c(OC)cc3Br)CCC1)N(C)CC2` (stereo not shown) [Example 56, 1-[1-(2-bromo-4,5-dimethoxyphenyl)cyclobutyl]-7-hydroxy-6-methoxy-2-methyl-1,2,3,4-tetrahydroisoquinoline], the inhibition constant (Ki) came to 2.3 nM on D1 dopamine receptors and 52000 nM on D2 dopamine receptors (setting [1]). Moreover, the “Ki for D2 / Ki for D1” value on D2 dopamine receptors is on record as 23000.

Regarding `CN1CCc2cc([N+](=O)[O-])c(O)cc2C1C1(c2ccccc2)CCC1` (stereo not shown) [Example 57, 7-hydroxy-2-methyl-6-nitro-1-(1-phenylcyclobutyl)-1,2,3,4-tetrahydroisoquinoline], the inhibition constant Ki at D1 dopamine receptors was 770 nM; on D2 dopamine receptors (setting [1]), above 5000 nM. Further, the “Ki for D2 / Ki for D1” value at D2 dopamine receptors was above 6.5.

`CN1CCc2cc(Cl)c(O)c(Cl)c2C1C1(c2ccccc2)CCC1` (stereo not shown) [Example 58, 6,8-dichloro-7-hydroxy-2-methyl-1-(1-phenylcyclobutyl)-1,2,3,4-tetrahydroisoquinoline]: the inhibition constant Ki on D1 dopamine receptors is 740 nM; on D2 dopamine receptors (setting [1]), 360000 nM. The “Ki for D2 / Ki for D1” value at D2 dopamine receptors stood at 490.

As for `CN1CCc2cc(F)c(O)cc2C1C1(c2ccccc2Cl)CC1` (stereo not shown) [Example 61, 1-[1-(2-chlorophenyl)cyclopropyl]-6-fluoro-7-hydroxy-2-methyl-1,2,3,4-tetrahydroisoquinoline], the results for the inhibition constant Ki at D1 dopamine receptors and at D2 dopamine receptors (setting [1]) were 0.18 nM and 450 nM, respectively. Moreover, on D2 dopamine receptors, the “Ki for D2 / Ki for D1” value was found to be 2500.

With `CN1CCc2cc(F)c(O)cc2C1C1(c2ccccc2Cl)CC1` (stereo not shown) [Example 63, 1-[1-(2-chlorophenyl)cyclopropyl]-6-fluoro-7-hydroxy-2-methyl-1,2,3,4-tetrahydroisoquinoline], the results for the Ki at D1 dopamine receptors and at D2 dopamine receptors (setting [1]) were 2 nM and 1600 nM, respectively. The “Ki for D2 / Ki for D1” value on D2 dopamine receptors worked out at 800.

For the compound `C=CCN1CCc2cc(Cl)c(O)cc2C1C1(c2ccccc2)CCC1` (stereo not shown) [Example 65, 2-allyl-6-chloro-7-hydroxy-1-(1-phenylcyclobutyl)-1,2,3,4-tetrahydroisoquinoline], the results for the Ki at D1 dopamine receptors and on D2 dopamine receptors (setting [1]) were 22 nM and 51000 nM, respectively. In addition, the “Ki for D2 / Ki for D1” value at D2 dopamine receptors was found to be 2300.

On to `CCN1CCc2cc(O)c(O)cc2C1C1(c2ccc(Cl)cc2)CCC1` (stereo not shown) [Example 66, 1-[1-(4-chlorophenyl)cyclobutyl]-2-ethyl-6,7-dihydroxy-1,2,3,4-tetrahydroisoquinoline], for which the values for the inhibition constant Ki at D1 dopamine receptors and on D2 dopamine receptors (setting [1]) were 120 nM and above 500 nM, respectively. In addition, the “Ki for D2 / Ki for D1” value at D2 dopamine receptors was above 4.2.

For the compound `C=CCN1CCc2cc(O)c(O)cc2C1C1(c2ccc(Cl)cc2)CCC1` (stereo not shown) [Example 67, 2-allyl-1-[1-(4-chlorophenyl)cyclobutyl]-6,7-dihydroxy-1,2,3,4-tetrahydroisoquinoline], the inhibitory constant (Ki) at D1 dopamine receptors was 53 nM; on D2 dopamine receptors (setting [2]), 7000 nM.

On to `COc1cc2c(cc1O)C(C1(c3ccccc3Br)CCC1)N(C)CC2` (stereo not shown) [Example 68, 1-[1-(2-bromophenyl)cyclobutyl]-7-hydroxy-6-methoxy-2-methyl-1,2,3,4-tetrahydroisoquinoline], for which the Ki at D1 dopamine receptors came out at 2 nM; on D2 dopamine receptors (setting [1]), 1900 nM. The “Ki for D2 / Ki for D1” value at D2 dopamine receptors stood at 950.
